From patent US20250381324A1, “CD31 MIMETIC COATING FOR ENDOVASCULAR STENT” (INSERM (Institut National de la Santé et de la Recherche …, priority 2021, published 2025)
Bridge positions count the residues as written; N and C are the ends. Square brackets hold non-standard residues; d marks the D form. Primed or numbered codes have the meaning given here. Ends that are not written are not given here. * marks the point of attachment. Lys(N3) = [N-]=[N+]=NCCCC[C@H](N)C(=O)O; Ttds = NCCCOCCOCCOCCCNC(=O)CCC(=O)*; hCys = N[C@@H](CCS)C(=O)O; PEG4′ = not defined here

What was measured:
[1] = system: Primary Human Aortic Endothelial Cells (HAEC); test: Human aortic endothelial cells grown 48 h on bare or peptide-coated nitinol disks; F-actin / CD31 staining and image analysis; type: cell-based; settings: for CD31/Actin score: Example 2, FIG. 25, repeated experiments (SP547, SP548 only one measure); for CD31 expression (physiologic endothelial phenotype), Integrated Density / F-actin expression (cellular stress), Integrated Density: HAEC 48 h on coated nitinol disks; for CD31 expression (physiologic endothelial phenotype), Integrated Density: compared to other modified disks and bare controls, FIGS. 2, 4, 5; for F-actin expression (cellular stress), Integrated Density: compared to bare metal, FIGS. 2, 3, 5
Protocol: Nitinol disks are left untouched (bare metal) or coated with a domain 1, domain 2 or domain 1 and 2 CD31 analog peptide. The tested peptide is grafted to the nitinol disk following a polydopamine, DBCO-PEG4-amine and azide CD31 derivative peptide using a sequential dip-coating layering procedure. After this step, all the disks are incubated with Human aortic endothelial cells for 48 h. Disks are then rinsed and the cells are fixed in a formalin solution before staining. The staining is fulfilled using phalloidin coupled to AlexaFluor®488 dye (green fluorescence for Actin), DAPI is used for DNA staining and a domain 1 CD31 antibody coupled to APC is used for external Domain 1 staining. The cell adhesion and Actin/CD31 expression was evaluated by image analysis of the surface after staining.
In particular, as per FIG. 2 the bare or coated nitinol disks were placed at the bottom of culture wells. Primary Human Aortic Endothelial Cells (HAEC) were allowed to grow on the disks for a period of 48 h. The disks were thereafter rinsed with phosphate buffered saline, fixed in formalin, and processed for fluorescence microscopy. Disk-adherent cells were immersed in a solution comprising Hoechst 33342 (1 μg/ml, to stain the nuclei), phalloidin coupled to AlexaFluor®488 dye (0.5 μM, to stain F-actin fibers) and a monoclonal antibody directed against CD31 domain 1, coupled to allophycocyanin (to detect the presence and localization of intact CD31 at the cell surface) for 1 hour at 37° C., washed and mounted face down on glass bottom imaging chambers for imaging with an inverted fluorescence microscope.
Surface type is indicated on the Y axis, data are expressed as average±SD (N=6/surface type). Each dot corresponds to a specific surface modification. The F-actin expression relates the cellular stress of the cell in presence of the exogenous material.
In FIG. 4 the surface type is indicated on the Y axis. Each dot corresponds to a specific surface modification. Data are expressed as “Integrated Density” average±SD (N=6/surface type). CD31 expression relates the capacity of endothelial cells to adopt a physiologic phenotype while growing on a given substrate. An important variability is observed in terms of CD31 expression by HAEC according to the surface modification of the nitinol disks.
The “mirror” bars of FIG. 5 report the average Integrated Density of F-actin (left) and of CD31 (right) staining for each of the indicated (Y axis) type of peptide coated onto the disk surface and bare disks. Data are sorted (from the top to the bottom) according to the increase in the cellular stress (actin expression) of each coating. As shown on the figure, the degree of cellular stress (as detected by a high actin expression) and impaired endothelial phenotype (documented by a low CD31 expression) is evident on HAEC grown onto bare metal disks.
The data shown in FIG. 6 are expressed as the ratio between CD31 and F-actin expression.
The effect of different peptides, belonging to the different groups, were tested in batches following the same protocol as in FIG. 6. Different peptides from each group were tested in batches and the effect of individual peptides was repeatedly assessed in separate experiments. Data from all experiments were obtained by computer-assisted analysis of images of the disk side covered with endothelial cells, captured in the blue, green and red channel of an inverted fluorescence microscope. The functional score of the peptides belonging to the different groups was calculated by multiplying the number of cells (as detected by the number of blue, Dapi+ nuclei) for the integrated density of CD31 expression (red signal provided by the binding of a mouse anti-human CD31 monoclonal antibody, clone 9G11, conjugated allophycocyanin) and their product being divided for the integrated density of the F-actin polymerization (Phalloidin coupled to a green fluorochrome). […]

endothelial cells = settings: immobilized peptide, in vitro; cited from earlier work

Substance	CD31/Actin score [1]	also measured
[^#CH2CONH2GTYKSTVIVNNKEKTTAEYQ-(Ttds)4-K(N3)-NH2]-[QHQMLFYhC^#DDVLFYNISSMK-CONH2] (chain 1 GTYKSTVIVNNKEKTTAEYQ-{Ttds-Ttds-Ttds-Ttds-Lys(N3)-NH2}; chain 2 QHQMLFY[hCys]DDVLFYNISSMK-NH2; not fully specified (N-terminus); also: thioether at chain B 8 to a chain's N-terminus) [SP1379]	significantly higher than those obtained by the bare metal disks or by disks coated with PDA alone	–
Ac-YKDDVLFYNISSMKST-GGSGGSGG-K(N3)-NH2 (Ac-YKDDVLFYNISSMKSTGGSGGSGG[Lys(N3)]-NH2; SMILES CC[C@H](C)[C@H](NC(=O)[C@H](CC(N)=O)NC(=O)[C@H](Cc1ccc(O)cc1)NC(=O)[C@H](Cc1ccccc1)NC(=O)[C@H](CC(C)C)NC(=O)[C@@H](NC(=O)[C@H](CC(=O)O)NC(=O)[C@H](CC(=O)O)NC(=O)[C@H](CCCCN)NC(=O)[C@H](Cc1ccc(O)cc1)NC(C)=O)C(C)C)C(=O)N[C@@H](CO)C(=O)N[C@@H](CO)C(=O)N[C@@H](CCSC)C(=O)N[C@@H](CCCCN)C(=O)N[C@@H](CO)C(=O)N[C@H](C(=O)NCC(=O)NCC(=O)N[C@@H](CO)C(=O)NCC(=O)NCC(=O)N[C@@H](CO)C(=O)NCC(=O)NCC(=O)N[C@@H](CCCCN=[N+]=[N-])C(N)=O)[C@@H](C)O) [SP548]	equivalent to those of sections coated by other peptides according to the invention	–
KWPALFVR [P8RI]	–	blood element reaction (endothelial cells): reduces the blood element reaction
Ac-K(N3)-(Ttds)4-PRhCTLDKKEAIQGGIVRVNhCSVPEEK-CONH2 ({Ac-Lys(N3)-Ttds-Ttds-Ttds-Ttds}-PR[hCys]TLDKKEAIQGGIVRVN[hCys]SVPEEK-NH2; disulfide 3-20) [SP1380]	–	CD31 expression (physiologic endothelial phenotype), Integrated Density [1]: evident positive effect in terms of CD31 expression
Ac-K(N3)-GGSGGSGG-YKDDVLFYNISSMKST-NH2 (Ac-[Lys(N3)]GGSGGSGGYKDDVLFYNISSMKST-NH2; SMILES CC[C@H](C)[C@H](NC(=O)[C@H](CC(N)=O)NC(=O)[C@H](Cc1ccc(O)cc1)NC(=O)[C@H](Cc1ccccc1)NC(=O)[C@H](CC(C)C)NC(=O)[C@@H](NC(=O)[C@H](CC(=O)O)NC(=O)[C@H](CC(=O)O)NC(=O)[C@H](CCCCN)NC(=O)[C@H](Cc1ccc(O)cc1)NC(=O)CNC(=O)CNC(=O)[C@H](CO)NC(=O)CNC(=O)CNC(=O)[C@H](CO)NC(=O)CNC(=O)CNC(=O)[C@H](CCCCN=[N+]=[N-])NC(C)=O)C(C)C)C(=O)N[C@@H](CO)C(=O)N[C@@H](CO)C(=O)N[C@@H](CCSC)C(=O)N[C@@H](CCCCN)C(=O)N[C@@H](CO)C(=O)N[C@H](C(N)=O)[C@@H](C)O) [SP547]	equivalent to those of sections coated by other peptides according to the invention	–
SHQMLFYKDDVLFYNISSS-GGSGGSGG-K(N3)-CONH2 (SHQMLFYKDDVLFYNISSSGGSGGSGG[Lys(N3)]-NH2; N-terminus assumed; SMILES CC[C@H](C)[C@H](NC(=O)[C@H](CC(N)=O)NC(=O)[C@H](Cc1ccc(O)cc1)NC(=O)[C@H](Cc1ccccc1)NC(=O)[C@H](CC(C)C)NC(=O)[C@@H](NC(=O)[C@H](CC(=O)O)NC(=O)[C@H](CC(=O)O)NC(=O)[C@H](CCCCN)NC(=O)[C@H](Cc1ccc(O)cc1)NC(=O)[C@H](Cc1ccccc1)NC(=O)[C@H](CC(C)C)NC(=O)[C@H](CCSC)NC(=O)[C@H](CCC(N)=O)NC(=O)[C@H](Cc1c[nH]cn1)NC(=O)[C@@H](N)CO)C(C)C)C(=O)N[C@@H](CO)C(=O)N[C@@H](CO)C(=O)N[C@@H](CO)C(=O)NCC(=O)NCC(=O)N[C@@H](CO)C(=O)NCC(=O)NCC(=O)N[C@@H](CO)C(=O)NCC(=O)NCC(=O)N[C@@H](CCCCN=[N+]=[N-])C(N)=O) [SP745]	significantly higher than those obtained by the bare metal disks or by disks coated with PDA alone	–
[Ac-K(N3)-(Ttds)4-PRVTLDKKEAIQGGIVRVNSSVPEEK-Ttds-K^# (CH2CO)-CONH2]-[QHQMLFYhC^#DDVLFYNISSMK-CONH2] (chain 1 {Ac-Lys(N3)-Ttds-Ttds-Ttds-Ttds}-PRVTLDKKEAIQGGIVRVNSSVPEEK-{Ttds-K(CH2CO)-NH2}; chain 2 QHQMLFY[hCys]DDVLFYNISSMK-NH2; also: thioether at chain B 8 to a chain's C-terminus) [SP1383]	significantly higher than those obtained by the bare metal disks or by disks coated with PDA alone	–
RDQNFVILEFP-PEG4-K(N3)-NH2 [SP1070]	significantly higher than those obtained by the bare metal disks or by disks coated with PDA alone	F-actin expression (cellular stress), Integrated Density [1]: does not show an influence on the cellular stress compared to the bare metal
hCHQMLFYKDDVLFYNISShCK-Ttds-Ttds-Ttds-Ttds-K(N3)-CONH2 ([hCys]HQMLFYKDDVLFYNISS[hCys]K-{Ttds-Ttds-Ttds-Ttds-Lys(N3)-NH2}; cysteine pairing not given here) [SP1374]	significantly higher than those obtained by the bare metal disks or by disks coated with PDA alone	F-actin expression (cellular stress), Integrated Density [1]: low cellular stress (low actin expression); CD31 expression (physiologic endothelial phenotype), Integrated Density ([1]; listed as 1374): evident positive effect in terms of CD31 expression; CD31 expression (physiologic endothelial phenotype), Integrated Density ([1]; listed as SP 1374): consistent functional endothelial phenotype (high CD31 expression)
Ac-K(N3)-PEG4-PRVTLDKKEAIQGGIVRVNSSVPEEK-CONH2 (Ac-[Lys(N3)][PEG4′]PRVTLDKKEAIQGGIVRVNSSVPEEK-NH2) [SP1071]	significantly higher than those obtained by the bare metal disks or by disks coated with PDA alone	–
